Consider 28 compounds from US12006321B2, “Substituted pyrazolo[1,5-a]pyrimidines as apelin receptor agonists” (Sanford Burnham Prebys Medical Discovery Institute, priority 2017, dated 2024).

The structures appear in SMILES notation.

In this assay the target is T1, human apelin receptor (APJ, APLNR) (Homo sapiens, UniProt P35414).
T1 construct: host or cells: Chinese hamster ovary (CHO) cells, stably integrated receptor
T1 sequence (P35414 1-380): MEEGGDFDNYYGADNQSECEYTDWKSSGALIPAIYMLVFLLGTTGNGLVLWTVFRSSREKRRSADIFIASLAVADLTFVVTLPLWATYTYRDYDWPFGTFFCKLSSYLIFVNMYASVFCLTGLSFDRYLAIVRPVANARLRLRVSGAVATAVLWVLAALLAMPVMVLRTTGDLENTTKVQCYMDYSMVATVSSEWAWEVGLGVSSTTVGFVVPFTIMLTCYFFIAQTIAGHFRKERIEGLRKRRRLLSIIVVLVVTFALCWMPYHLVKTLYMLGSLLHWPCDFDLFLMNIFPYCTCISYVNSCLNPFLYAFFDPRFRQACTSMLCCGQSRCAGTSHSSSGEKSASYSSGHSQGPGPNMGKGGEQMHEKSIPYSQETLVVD
Kind of assay: cell-based cAMP assay (TR-FRET) in Chinese hamster ovary cells expressing the apelin receptor. The settings on record: EC50 = 50% of control (apelin-13, 1 nM) response; cAMP in CHO cells, 0.5 h incubation; read-out: Potency Category. Here is the method:
This example illustrates the biological activity of various compounds tested against the APJ receptor.
Commercially available cell lines were used to screen chemical libraries to identify compounds that potently and selectively activated the human apelin receptor. The assays disclosed herein were performed using cell lines from DiscoveX, Inc.
Biological activity was determined to the cell-based assay. This assay detects activation of the receptor by reporting on intracellular cyclic adenosine monophosphate (cAMP) level. Chinese hamster ovary cells engineered to express the stably integrated human appellant receptor (APJ, AGTRL-one, APLNR), pleaded into the wells of the microtiter plate. Cells were stimulated with […] to increase intracellular cyclic AMP. Immediately following, compounds were added to the range of final concentrations 0.0-100 μM, in DMSO (not to exceed a final DMSO concentration greater than 1% v/v), and allowed to incubate with the cells for 0.5 h. At the end of the incubation, cells were lysed to stop APJ signaling and cAMP was quantified using a commercially available competitive immunoassay kit that applies homogenous time-resolved florescence energy transfer (TR-FRET). The assay is based on the competition between a europium (Eu) chelate-labeled cAMP donor tracer and cellular cAMP for binding sites on a cAMP-specific monoclonal antibody labeled with an acceptor fluorophore. When antibodies are bound to the cAMP tracer light emissions at 320 nm stimulate the energy transfer from the donor to the acceptor, which in turn emits light at 665 nm. In the presence of competitive unlabeled cAMP (derived from the activity of the receptor or forskolin-stimulated production of cAMP), the labelled cAMP tracer is dissociated from the cAMP antibody, resulting in a loss of FRET signal. The amount of light emitted by the FRET is inversely proportional to the cAMP generated by the cell/receptor system. Potency and efficacy at APJ are reported in reference to the canonical APJ receptor agonist apelin-13 when tested at 1 nM.
Compound competency is reported as the effective concentration required to effect 50% (EC 50) of the control (apelin—13, 1 nM) response in micromole are (μM) units. Compound efficacy (% response) is reported as a percentage of the maximal apein-13 response at 1 nM (control). Potencies were calculated by fitting a four-point logistic curve to concentration response consisting of at least 10 discrete data points spanning effective range of the compounds in the cell-based assay that measures cAMP. In Table 1, the Potency Categories are A, B, C and D. Category A EC50>500 nM; Category B 200<EC50<500 nM; Category C 100<EC50<200 nM; Category D<100 nM.
(In general: Cyclic AMP is a second messenger, typically raised through Gs and lowered through Gi signalling.)
`COC(=O)c1cc(N2CCCCC2)n2nc(C)c(-c3c(C)cccc3C)c2n1` [Compound 124, methyl 3-(2,6-dimethylphenyl)-2-methyl-7-piperidyl-8-hydropyrazolo[1,5-a]pyrimidine-5-carboxylate]: the EC50 is over 500 nM.
Under `CCOC(=O)c1cccc(C)c1-c1c(C)nn2c(C(C)C)cc(C(=O)O)nc12` [Compound 77, 3-[6-(ethoxycarbonyl)-2-methylphenyl]-2-methyl-7-(methylethyl)-8-hydropyrazolo[1,5-a]pyrimidine-5-carboxylic acid] stands 100 to 200 nM; under `Cc1cccc(C)c1-c1c(C)nn2c(C(C)C)cc(CO)nc12` [Compound 62, [3-(2,6-dimethylphenyl)-2-methyl-7-(methylethyl)-8-hydropyrazolo[1,5-a]pyrimidin-5-yl]methan-1-ol], over 500 nM; under `COC(=O)c1cc(Nc2ccc(OC(F)(F)F)cc2)n2nc(C)c(-c3c(C)cccc3C)c2n1` [Compound 137, methyl 3-(2,6-dimethylphenyl)-2-methyl-7-{[4-(trifluoromethoxy)phenyl]amino}-8-hydropyrazolo[1,5-a]pyrimidine-5-carboxylate], over 500 nM.
Turning to `Cc1cccc(C)c1-c1c(C)nn2c(Nc3ccc(C#N)cc3)cc(C(=O)O)nc12` [Compound 145, 3-(2,6-dimethylphenyl)-7-[(4-cyanophenyl)amino]-2-methyl-8-hydropyrazolo[1,5-a]pyrimidine-5-carboxylic acid], the EC50 was over 500 nM.
For the compound `CCOC(=O)c1cc(C2CC2)n2nc(C)c(-c3c(C)cccc3C)c2n1` [Compound 59, ethyl 3-(2,6-dimethylphenyl)-7-cyclopropyl-2-methyl-8-hydropyrazolo[1,5-a]pyrimidine-5-carboxylate], the EC50 was over 500 nM.
In the case of `CCOC(=O)c1cc(N2CCN(C)CC2)n2nc(C)c(-c3c(C)cccc3C)c2n1` [Compound 108, ethyl 3-(2,6-dimethylphenyl)-2-methyl-7-(4-methylpiperazinyl)-8-hydropyrazolo[1,5-a]pyrimidine-5-carboxylate], the EC50 is over 500 nM.
Under `Cc1cccc(C)c1-c1c(C)nn2c(C3=CCCCC3)cc(C(=O)O)nc12` [Compound 154, 3-(2,6-dimethylphenyl)-7-cyclohex-1-enyl-2-methyl-8-hydropyrazolo[1,5-a]pyrimidine-5-carboxylic acid] stands over 500 nM; under `COC(=O)c1cc(N(C)c2ccc(C)cc2)n2nc(C)c(-c3c(C)cccc3C)c2n1` [Compound 147, methyl 3-(2,6-dimethylphenyl)-2-methyl-7-[methyl(4-methylphenyl)amino]-8-hydropyrazolo[1,5-a]pyrimidine-5-carboxylate], over 500 nM; under `CCOC(=O)c1cc(C(C)C)n2nc(C)c(-c3c(F)cccc3F)c2n1` [Compound 105, ethyl 3-(2,6-difluorophenyl)-2-methyl-7-(methylethyl)-8-hydropyrazolo[1,5-a]pyrimidine-5-carboxylate], over 500 nM.
In the case of `Cc1cccc(C)c1-c1c(C2CCC2)nn2c(C(C)C)cc(C(=O)O)nc12` [Compound 81, 3-(2,6-dimethylphenyl)-2-cyclobutyl-7-(methylethyl)-8-hydropyrazolo[1,5-a]pyrimidine-5-carboxylic acid], the EC50 is over 500 nM.
For the compound `CCOC(=O)c1cc(CC)n2nc(C)c(-c3c(C)cccc3C)c2n1` [Compound 58, ethyl 3-(2,6-dimethylphenyl)-7-ethyl-2-methyl-8-hydropyrazolo[1,5-a]pyrimidine-5-carboxylate], the EC50 was over 500 nM.
To `CCc1cc(C(=O)O)nc2c(-c3c(C)cccc3C)c(C)nn12` [Compound 72, 3-(2,6-dimethylphenyl)-7-ethyl-2-methyl-8-hydropyrazolo[1,5-a]pyrimidine-5-carboxylic acid] belongs over 500 nM; to `Cc1cccc(C)c1-c1c(C)nn2c(Nc3ccccc3)cc(C(=O)O)nc12` [Compound 118, 3-(2,6-dimethylphenyl)-2-methyl-7-(phenylamino)-8-hydropyrazolo[1,5-a]pyrimidine-5-carboxylic acid], over 500 nM; to `CCOC(=O)c1cc(C(C)C)n2nc(C)c(-c3cccc(C)c3)c2n1` [Compound 27, ethyl 2-methyl-7-(methylethyl)-3-(3-methylphenyl)-8-hydropyrazolo[1,5-a]pyrimidine-5-carboxylate], over 500 nM.
For `Cc1cccc(C)c1-c1c(C)nn2c(N3CCOCC3)cc(C(=O)O)nc12` [Compound 98, 3-(2,6-dimethylphenyl)-2-methyl-7-morpholin-4-yl-8-hydropyrazolo[1,5-a]pyrimidine-5-carboxylic acid], the EC50 is over 500 nM.
To `Cc1cc(F)cc(C)c1-c1c(C)nn2c(C(C)C)cc(C(=O)O)nc12` [Compound 50, 3-(4-fluoro-2,6-dimethylphenyl)-2-methyl-7-(methylethyl)-8-hydropyrazolo[1,5-a]pyrimidine-5-carboxylic acid] belongs 100 to 200 nM; to `COC(=O)c1cc(C(C)(C)C)n2nc(C)c(-c3ccccc3)c2n1` [Compound 1, methyl 7-(tert-butyl)-2-methyl-3-phenyl-8-hydropyrazolo[1,5-a]pyrimidine-5-carboxylate], over 500 nM; to `CCOC(=O)c1cc(C(C)C)n2nc(C)c(-c3c(F)cccc3Cl)c2n1` [Compound 112, ethyl 3-(2-chloro-6-fluorophenyl)-2-methyl-7-(methylethyl)-8-hydropyrazolo[1,5-a]pyrimidine-5-carboxylate], over 500 nM.
With `Cc1cccc(C)c1-c1c(C)nn2c(-c3ccco3)cc(C(=O)O)nc12` [Compound 156, 3-(2,6-dimethylphenyl)-7-(2-furyl)-2-methyl-8-hydropyrazolo[1,5-a]pyrimidine-5-carboxylic acid], the EC50 is over 500 nM.
To `CCOC(=O)c1cc(C(C)C)n2nc(C)c(-c3cccc(OC)c3)c2n1` [Compound 18, ethyl 3-(3-methoxyphenyl)-2-methyl-7-(methylethyl)-8-hydropyrazolo[1,5-a]pyrimidine-5-carboxylate] belongs over 500 nM; to `CCOC(=O)c1cc(C(C)C)n2nc(C3CC3)c(-c3ccccc3)c2n1` [Compound 11, ethyl 2-cyclopropyl-7-(methylethyl)-3-phenyl-8-hydropyrazolo[1,5-a]pyrimidine-5-carboxylate], over 500 nM; to `COc1ccc(-c2c(C)nn3c(C(C)C)cc(C(=O)O)nc23)cc1` [Compound 9, 3-(4-methoxyphenyl)-2-methyl-7-(methylethyl)-8-hydropyrazolo[1,5-a]pyrimidine-5-carboxylic acid], over 500 nM.
Consider `CCOC(=O)c1cc(C(C)C)n2nc(C)c(-c3ccccc3F)c2n1` [Compound 23, ethyl 3-(2-fluorophenyl)-2-methyl-7-(methylethyl)-8-hydropyrazolo[1,5-a]pyrimidine-5-carboxylate], for which the EC50 was over 500 nM.
`Cc1nn2c(C(C)C)cc(C(=O)O)nc2c1-c1ccc(F)cc1` [Compound 8, 3-(4-fluorophenyl)-2-methyl-7-(methylethyl)-8-hydropyrazolo[1,5-a]pyrimidine-5-carboxylic acid]: the EC50 was over 500 nM.
`CC1=NC2C(C(C)C)=CC(C(=O)O)=NC2=C1c1ccccc1F` (stereo not shown) [Compound 24, 3-(2-fluorophenyl)-2-methyl-7-(methylethyl)-8-hydropyrazolo[1,5-a]pyrimidine-5-carboxylic acid]: the EC50 is over 500 nM.
In the case of `Cc1nn2c(C(C)C)cc(C(=O)O)nc2c1-c1c(F)cccc1Cl` [Compound 113, 3-(2-chloro-6-fluorophenyl)-2-methyl-7-(methylethyl)-8-hydropyrazolo[1,5-a]pyrimidine-5-carboxylic acid], the EC50 was over 500 nM.
To `Cc1cc(Cl)cc(C)c1-c1c(C)nn2c(C(C)C)cc(C(=O)O)nc12` [Compound 70, 3-(4-chloro-2,6-dimethylphenyl)-2-methyl-7-(methylethyl)-8-hydropyrazolo[1,5-a]pyrimidine-5-carboxylic acid] belongs over 500 nM.
